# Results reported in patent US10363239B2, “Method for inhibiting growth of cancer cells” (Pain Therapeutics, Inc., priority 2013, dated 2019).
# Where two headings read alike, the source gives them in different places.
# Key:
# [1] = molecular target: FLNA pentapeptide of SEQ ID NO: 1 (Bn-VAKGL) (Homo sapiens, UniProt P21333); assay: FITC-NLX-based FLNA screening assay (inhibition of FITC-naloxone binding to Bn-VAKGL on streptavidin plates); conditions: 10 nM FITC-NLX
# mu opiate receptor (MOR) = assay: MOR agonist activity using [35S]GTPγS binding assay in striatal membranes; assay type: biochemical; conditions: for MOR agonist activity ([35S]GTPγS binding), FLNA-Binding Compound as Agonist 1 μM + BFNA: 1 μM compound + 1 μM β-funaltrexamine
# In short: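 Striatal membranes (200 μg) were preincubated 5 min at 30 °C in HEPES pH 7.5 with 100 mM NaCl, 1 mM MgCl2 and 0.5 nM [35S]GTPγS, then 5 min more with 0.1–10 μM compound. Gαo was immunoprecipitated and bound radioactivity counted by scintillation.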
# [2] = read-out: Percent Binding Inhibition, FLNA-binding compound 0.01 μM
# [3] = read-out: Percent Binding Inhibition, FLNA-binding compound 0.1 μM
# [4] = read-out: Percent Binding Inhibition, FLNA-binding compound 1 μM
# [5] = Series B, 0.1 μM compound, relative to DAMGO
# [6] = Series B, 0.1 μM compound, [35S]GTPγS binding to Gαo, striatal membranes
# [7] = Series B, 1 μM compound + 1 μM β-FNA
# [8] = Series B, 1 μM compound + β-FNA, relative to DAMGO + BFNA
# [9] = Series B, 1 μM compound, relative to DAMGO
# [10] = Series B, 1 μM compound, [35S]GTPγS binding to Gαo, striatal membranes
# [11] = Series C-2, 0.1 μM compound, relative to DAMGO
# [12] = Series C-2, 0.1 μM compound, [35S]GTPγS binding to Gαo, striatal membranes
# [13] = Series C-2, 1 μM compound + 1 μM β-FNA
# [14] = Series C-2, 1 μM compound + β-FNA, relative to DAMGO + BFNA
# [15] = Series C-2, 1 μM compound, relative to DAMGO
# [16] = Series C-2, 1 μM compound, [35S]GTPγS binding to Gαo, striatal membranes
# [17] = FLNA-binding compound 0.01 μM, read-out: Percent Binding Inhibition
# [18] = FLNA-binding compound 0.1 μM, read-out: Percent Binding Inhibition
# [19] = FLNA-binding compound 1 μM, read-out: Percent Binding Inhibition
# [20] = 0.1 μM compound relative to DAMGO
# [21] = 1 μM compound + BFNA relative to DAMGO + BFNA
# [22] = 1 μM compound relative to DAMGO
structure (smiles),measurement,setting,value
COc1ccc(C(=O)CC2c3c(cc4c(c3OC)OCO4)CC[N+]2(C)C)cc1OC (stereo not drawn) [Compound B0026],inhibition at 0.01 µM,[1]; [2],41.1%
same,inhibition at 0.1 µM,[1]; [3],43.3%
same,inhibition at 1 µM,[1]; [4],48.2%
same,% DAMGO (0.1 μM),mu opiate receptor (MOR); [5],88.8%
same,"MOR agonist activity, percent [35S]GTPγS binding at the stated compound concentration",mu opiate receptor (MOR); [6],152.0%
same,"MOR agonist activity, percent [35S]GTPγS binding at the stated compound concentration",mu opiate receptor (MOR); [7],28.8%
same,% DAMGO + BFNA,mu opiate receptor (MOR); [8],55.3%
same,% DAMGO (1 μM),mu opiate receptor (MOR); [9],87.4%
same,"MOR agonist activity, percent [35S]GTPγS binding at the stated compound concentration",mu opiate receptor (MOR); [10],233.3%
CC(=O)c1ccc(S(=O)(=O)N2C(Cc3c[nH]cn3)C(=O)NC23CCNCC3)cc1 (stereo not drawn) [Compound C0119M],inhibition at 0.01 µM,[1]; [2],41.6%
same,inhibition at 0.1 µM,[1]; [3],55.5%
same,inhibition at 1 µM,[1]; [4],60%
same,% DAMGO (0.1 μM),mu opiate receptor (MOR); [11],71.9%
same,"MOR agonist activity, percent [35S]GTPγS binding at the stated compound concentration",mu opiate receptor (MOR); [12],105.7%
same,"MOR agonist activity, percent [35S]GTPγS binding at the stated compound concentration",mu opiate receptor (MOR); [13],35.1%
same,% DAMGO + BFNA,mu opiate receptor (MOR); [14],89.3%
same,% DAMGO (1 μM),mu opiate receptor (MOR); [15],83.0%
same,"MOR agonist activity, percent [35S]GTPγS binding at the stated compound concentration",mu opiate receptor (MOR); [16],167.8%
COc1c2c(cc3c1C(CC(=O)c1ccc(O)c(C)c1)[N+](C)(C)CC3)OCO2 (stereo not drawn) [Compound B0002],inhibition at 0.01 µM,[1]; [2],40.2%
same,inhibition at 0.1 µM,[1]; [3],46.4%
same,inhibition at 1 µM,[1]; [4],55%
same,% DAMGO (0.1 μM),mu opiate receptor (MOR); [5],100.0%
same,"MOR agonist activity, percent [35S]GTPγS binding at the stated compound concentration",mu opiate receptor (MOR); [6],165.7%
same,"MOR agonist activity, percent [35S]GTPγS binding at the stated compound concentration",mu opiate receptor (MOR); [7],101.4%
same,% DAMGO + BFNA,mu opiate receptor (MOR); [8],156.0%
same,% DAMGO (1 μM),mu opiate receptor (MOR); [9],81.1%
same,"MOR agonist activity, percent [35S]GTPγS binding at the stated compound concentration",mu opiate receptor (MOR); [10],219.0%
CC1CN(CC(O)COc2cc(F)cc(F)c2)CC(C)O1 (stereo not drawn) [Compound A0046],inhibition at 0.01 µM,[1]; [17],34.3%
same,inhibition at 0.1 µM,[1]; [18],38.4%
same,inhibition at 1 µM,[1]; [19],40.9%
same,"MOR agonist activity ([35S]GTPγS binding), FLNA-Binding Compound as Agonist 0.1 μM",mu opiate receptor (MOR); 0.1 μM compound,257.5%
same,% DAMGO (0.1 μM),mu opiate receptor (MOR); [20],131.2%
same,"MOR agonist activity ([35S]GTPγS binding), FLNA-Binding Compound as Agonist 1 μM",mu opiate receptor (MOR); 1 μM compound,354.1%
same,"MOR agonist activity ([35S]GTPγS binding), FLNA-Binding Compound as Agonist 1 μM + BFNA",mu opiate receptor (MOR),140.0%
same,% DAMGO + BFNA,mu opiate receptor (MOR); [21],189.4%
same,% DAMGO (1 μM),mu opiate receptor (MOR); [22],128.3%
COc1ccccc1S(=O)(=O)N1CCC2(CC1)OCCN2S(=O)(=O)c1ccccc1OC [Compound C0003],inhibition at 0.01 µM,[1]; [2],38.3%
same,inhibition at 0.1 µM,[1]; [3],45.3%
same,inhibition at 1 µM,[1]; [4],48.8%
same,% DAMGO (0.1 μM),"mu opiate receptor (MOR); Series C-1, 0.1 μM compound, relative to DAMGO",91.9%
same,Concentration of FLNA-Binding Compound as Agonist 0.1 μM,"mu opiate receptor (MOR); Series C-1, 0.1 μM compound, [35S]GTPγS binding to Gαo, striatal membranes",162.3%
same,Concentration of FLNA-Binding Compound as Agonist 1 μM + BFNA,"mu opiate receptor (MOR); Series C-1, 1 μM compound + 1 μM β-FNA",107.7%
same,% DAMGO + BFNA,"mu opiate receptor (MOR); Series C-1, 1 μM compound + β-FNA, relative to DAMGO + BFNA",163.9%
same,% DAMGO (1 μM),"mu opiate receptor (MOR); Series C-1, 1 μM compound, relative to DAMGO",83.3%
same,Concentration of FLNA-Binding Compound as Agonist 1 μM,"mu opiate receptor (MOR); Series C-1, 1 μM compound, [35S]GTPγS binding to Gαo, striatal membranes",215.9%
O=[N+]([O-])c1ccc(S(=O)(=O)N2CCC3(CC2)NCCS3)cc1 [Compound C0044],inhibition at 0.01 µM,[1]; [17],37.3%
same,inhibition at 0.1 µM,[1]; [18],43.9%
same,inhibition at 1 µM,[1]; [19],50.6%
same,% DAMGO (0.1 μM),mu opiate receptor (MOR); [11],102.8%
same,"MOR agonist activity, percent [35S]GTPγS binding at the stated compound concentration",mu opiate receptor (MOR); [12],173.7%
same,"MOR agonist activity, percent [35S]GTPγS binding at the stated compound concentration",mu opiate receptor (MOR); [13],59.1%
same,% DAMGO + BFNA,mu opiate receptor (MOR); [14],356.0%
same,% DAMGO (1 μM),mu opiate receptor (MOR); [15],128.0%
same,"MOR agonist activity, percent [35S]GTPγS binding at the stated compound concentration",mu opiate receptor (MOR); [16],280.1%
CC1CCC(C(C)C)C(OCC(O)Cn2cccc2)C1 (stereo not drawn) [Compound A0038],inhibition at 0.01 µM,[1]; [2],46.4%
same,inhibition at 0.1 µM,[1]; [3],52.3%
same,inhibition at 1 µM,[1]; [4],56.6%
same,"MOR agonist activity ([35S]GTPγS binding), FLNA-Binding Compound as Agonist 0.1 μM",mu opiate receptor (MOR); 0.1 μM compound,176.7%
same,% DAMGO (0.1 μM),mu opiate receptor (MOR); [20],90.1%
same,"MOR agonist activity ([35S]GTPγS binding), FLNA-Binding Compound as Agonist 1 μM",mu opiate receptor (MOR); 1 μM compound,234.5%
same,"MOR agonist activity ([35S]GTPγS binding), FLNA-Binding Compound as Agonist 1 μM + BFNA",mu opiate receptor (MOR),107.0%
same,% DAMGO + BFNA,mu opiate receptor (MOR); [21],144.8%
same,% DAMGO (1 μM),mu opiate receptor (MOR); [22],85.0%
